Reference: patent US9295669B2, “Combination therapy for proliferative disorders” (Hoffman La-Roche Inc., priority 2010, dated 2016)
Where two headings read alike, the source gives them in different places.

Assays:
[1] = tested on: human LOX-IMVI melanoma cell xenografts; test: Tumor growth inhibition in mice with human LOX-IMVI melanoma xenografts; assay type: in vivo; conditions: monotherapy; for % Inhibition end of study Day: 19 / % T/C end of study Day: 19 / Average % Regression per Group / Mean Tumor Volume End Study DAY: 19 / % Inhibition end of study Day: 18 / % T/C end of study Day: 18 / Mean Tumor Volume End Study DAY: 18 / % Tumor Growth Inhibition: 10 mice; for Complete Regression / Partial Regression: animals out of 10 per group
Experimental: (§1) Mice were implanted with human LOX-IMVI melanoma cell xenografts. The mice, cell line used, and implantation are described below.
(§2) Female athymic Crl:NU-Foxn1nu mice were used for efficacy testing (Charles River, Wilmington, Mass., USA). Mice were 10-12 weeks of age and weighed 23-25 grams. The health of the mice was assessed daily by observation and analysis of blood samples taken from sentinel animals on shared shelf racks. All animals were allowed to acclimate and recover from shipping-related stress for one week. Autoclaved water and irradiated food (5058-ms Pico Lab mouse chow, Purina Mills, Richmond, Ind., USA) were provided ad libitum, and the animals were kept in a 12 hour light and dark cycle. Cages, bedding and water bottles were autoclaved before use and changed weekly. All animal experiments were conducted in accordance with the Guide for the Care and Use of Laboratory Animals, local regulations, and protocols approved by the Roche Animal Care and Use Committee in our AAALAC accredited facility.
(§3) LOX-IMVI cells (aka LOX, National Cancer Institute—Bethesda, Md.) were grown in RPMI-1640 medium supplemented with 10% Fetal Bovine Serum (FBS) and 1% of […] L-glutamine, scaled up, harvested, and prepared so that each mouse received 2×10^6 cells/0.2 ml calcium and magnesium free phosphate-buffered saline (PBS). Cells were implanted in the subcutaneous right flank of each mouse.
(§4) Mice implanted with human xenografts were randomized into eight groups of 10 mice each according to tumor volume so that all groups had similar starting mean tumor volumes. The approximate starting mean tumor volume for this study was 130 mm^3.
(§5) Treatment began on day 5 post-cell implant and ended at day 18 post-cell implant. Four groups of mice developed in example 3 were used. Each group was subjected to a different therapy as follows: • (1) mice receiving Compound I vehicle bid po and peginterferon alfa-2a vehicle 1×/wk sc; • (2) mice receiving Compound I at 75 mg/kg bid bid po; • (3) mice receiving peginterferon alfa-2a at 900 μg 1×/wk sc; and • (4) mice receiving Compound I at 75 mg/kg bid bid po and peginterferon alfa-2a at 900 μg 1×/wk sc.
(§6) The Compound I suspension and its corresponding vehicle were dosed using a sterile 1 cc syringe and 18-gauge gavage needle (0.2 ml/animal) twice daily. The peginterferon alfa-2a solution and its corresponding vehicle were dosed using a sterile 1 cc syringe and 26-gauge needle (0.2 ml/animal) once weekly on days 5 and 12 post-cell implant for a total of two injections.
Tumor measurements were taken once or twice per week. All animals were individually followed throughout the experiment.
Efficacy data was graphically represented as the mean tumor volume±standard error of the mean (SEM). In addition, tumor volumes of treated groups were presented as percentages of tumor volumes of the control groups (% T/C), using the formula: 100×((T−T0)/(C−C0)), where T represented mean tumor volume of a treated group on a specific day during the experiment, T0 represented mean tumor volume of the […] on the first day of treatment; C represented mean tumor volume of a control group on the specific day during the experiment, and Co represented mean tumor volume of the […] on the first day of treatment.
Tumor volume (in cubic millimeters) was calculated using the ellipsoid formula: (D×(d^2))/2, where “D” represents the large diameter of the tumor and “d” represents the small diameter.
Also, tumor regression and/or percent change in tumor volume was calculated using the formula: ((T−T0)/T0)×100, where ‘T’ represents mean tumor volume of the treated group at a particular day, and ‘T0’ represents mean tumor volume of the same treated group at initiation of treatment.
Statistical analysis was determined by the rank sum test and One Way Anova and a post-hoc Bonferroni t-test (SigmaStat, version 2.0, Jandel Scientific, San Francisco, Calif., USA). […]

[2] = tested on: human LOX-IMVI melanoma cell xenografts; test: Assessment of survival (increased life span) in mice with human LOX-IMVI melanoma xenografts; assay type: in vivo; conditions: monotherapy; for 50% Treatment Days (median survival day of treated group): 50% vehicle days 14; for % ILS (increased life span): versus vehicle group
Experimental: as §1, §2, §3, §4, §5, §6
For survival assessment, the percent of increased life space (ILS) was calculated as: 100×[(median survival day of treated group−median survival day of control group)/median survival day of control group]. Median survival was determined utilizing Kaplan Meier survival analysis. Survival in treated groups was statistically compared with the vehicle group and survival comparisons were done between groups using the log-rank test (Graph Pad Prism, La Jolla, Calif., USA). Differences between groups were considered significant when the probability value (p) was ≦0.05.
Treatment began on day 6 post-cell implant and ended at day 19 post-cell implant. Four groups of mice developed in example 3 were used. The treatment groups were as follows: • (1) mice receiving Compound I vehicle bid po and peginterferon alfa-2a vehicle 1×/wk sc; • (2) mice receiving Compound I at 25 mg/kg bid po; • (3) mice receiving peginterferon alfa-2a at 450 μg 1×/wk sc; and • (4) mice receiving Compound I at 25 mg/kg bid and peginterferon alfa-2a at 450 μg 1×/wk.
The Compound I suspension and its corresponding vehicle were dosed using a sterile 1 cc syringe and 18-gauge gavage needle (0.2 ml/animal) twice daily. The peginterferon alfa-2a solution and its corresponding vehicle were dosed using a sterile 1 cc syringe and 26-gauge needle (0.2 ml/animal) once weekly on days 6 and 13 post-cell implant for a total of two injections.

[3] = assay type: in vivo; conditions: monotherapy, 10 mice
Experimental: as §2, with “Autoclaved water and irradiated food (5058-ms Pico Lab mouse chow, Purina Mills, Richmond, Ind., USA) were provided ad libitum, and the animals were kept in a 12 hour light and dark cycle.” left out
Treatment began on day 5 post-cell implant and ended at day 18 post-cell implant.
The peginterferon alfa-2a solution and its corresponding vehicle were dosed using a sterile 1 cc syringe and 26-gauge needle (0.2 ml/animal) once weekly on days 5 and 12 post-cell implant for a total of two injections.
Weight loss was graphically represented as percent change in mean group body weight, using the formula: ((W−W0)/W0)×100, where ‘W’ represents mean body weight of the treated group at a particular day, and ‘W0’ represents mean body weight of the same treated group at initiation of treatment.
Treatment began on day 6 post-cell implant and ended at day 19 post-cell implant.
The peginterferon alfa-2a solution and its corresponding vehicle were dosed using a sterile 1 cc syringe and 26-gauge needle (0.2 ml/animal) once weekly on days 6 and 13 post-cell implant for a total of two injections.

[4] = Compound I 25 mg/kg bid po, days 6-19 post-cell implant
[5] = Compound I 75 mg/kg bid po, days 5-18 post-cell implant
[6] = peginterferon alfa-2a 450 μg 1×/wk sc (days 6 and 13)
[7] = peginterferon alfa-2a 900 μg 1×/wk sc (days 5 and 12)

CCCS(=O)(=O)Nc1ccc(F)c(C(=O)c2c[nH]c3ncc(-c4ccc(Cl)cc4)cc23)c1F [Compound I, Propane-1-sulfonic acid{3-[5-(4-chloro-phenyl)-1H-pyrrolo[2,3-b]pyridine-3-carbonyl]-2,4-difluoro-phenyl}-amide]
% Inhibition end of study Day: 19 [1, 4]: regression | % T/C end of study Day: 19 [1, 4]: −5% | Average % Regression per Group [1, 4]: 100% | Mean Tumor Volume End Study DAY: 19 [1, 4]: 0.00 mm^3 | Complete Regression [1, 4]: 10 | Partial Regression [1, 4]: 0 | % Inhibition end of study Day: 18 [1, 5]: regression | % T/C end of study Day: 18 [1, 5]: −4% | Average % Regression per Group [1, 5]: 100% | Mean Tumor Volume End Study DAY: 18 [1, 5]: 0.00 mm^3 | Complete Regression [1, 5]: 10 | Partial Regression [1, 5]: 0 | 50% Treatment Days (median survival day of treated group) [2, 4]: 59 days | % ILS (increased life span) [2, 4]: 321% | 50% Treatment Days (median survival day of treated group) [2, 5]: 504 days | % ILS (increased life span) [2, 5]: 3500% | # animals ≧ 20% BWL [3, 4]: 0 | % Change in Body Weight at end of Study Day 19 [3, 4]: 1.3% | Max % Weight Gain [3, 4]: 1.3% | Max % Weight Loss [3, 4]: −1.0% | Mortality [3, 4]: 0 | # animals ≧ 20% BWL [3, 5]: 0 | % Change in Body Weight at end of Study Day 18 [3, 5]: −7.0% | Max % Weight Gain [3, 5]: −3.6% | Max % Weight Loss [3, 5]: −7.0% | Mortality [3, 5]: 0

Peginterferon alfa-2a
% Inhibition end of study Day: 19 [1, 6]: regression | % T/C end of study Day: 19 [1, 6]: 0% | % Tumor Growth Inhibition [1, 6]: >100% | Average % Regression per Group [1, 6]: 6% | Mean Tumor Volume End Study DAY: 19 [1, 6]: 122.93 mm^3 | Complete Regression [1, 6]: 1 | Partial Regression [1, 6]: 6 | % Inhibition end of study Day: 18 [1, 7]: 98% | % T/C end of study Day: 18 [1, 7]: 2% | % Tumor Growth Inhibition [1, 7]: 98% | Mean Tumor Volume End Study DAY: 18 [1, 7]: 193.98 mm^3 | Complete Regression [1, 7]: 3 | Partial Regression [1, 7]: 2 | 50% Treatment Days (median survival day of treated group) [2, 6]: 30 days | % ILS (increased life span) [2, 6]: 114% | 50% Treatment Days (median survival day of treated group) [2, 7]: 34 days | % ILS (increased life span) [2, 7]: 143% | # animals ≧ 20% BWL [3, 6]: 0 | % Change in Body Weight at end of Study Day 19 [3, 6]: 8.1% | Max % Weight Gain [3, 6]: 8.1% | Max % Weight Loss [3, 6]: 3.7% | Mortality [3, 6]: 0 | # animals ≧ 20% BWL [3, 7]: 0 | % Change in Body Weight at end of Study Day 18 [3, 7]: 2.7% | Max % Weight Gain [3, 7]: 2.7% | Max % Weight Loss [3, 7]: 0.7% | Mortality [3, 7]: 0
